Consider two compounds from patent US6037386A, “Composition for inactivating irritants in fluids” (priority 1999, dated 2000).

One data set concerns Staphylococcus aureus. Nature of the data set: CFU in glove fingers inoculated with blood containing Staphylococcus aureus (synergistic activity). The class given is cell-based. The following applies: 2 minutes; CHG 450 μg, ZnO 12.5 mg. The method, then: Synergistic Activity of Zinc Oxide and CHX. CHG, ZnO, and a combination thereof was added to each glove finger. Glove fingers were then inoculated with 0.1 mL of blood containing 10^5 CFU Staphylococcus aureusmL. After 2 minutes, 0.9 mL of LTSB was added, and 0.2 mL of the extract were plated to determine colony counts.
This experiment was carried out using the method described in Example 14.

For a further data set, the system named is HIV. Nature of the data set: Cidal concentration of CHG (1 minute kill), HIV. Type of data set: cell-based.
Another data set relates to HBV. Nature of the data set: Cidal concentration of CHG (1 minute kill), HBV. The class given is cell-based.
Data set [1] in a line: Product formed on mixing zinc salts with CHG / gel formation. The class given is physicochemical.
Protocol: The following zinc salts were mixed with CHG for 1 hour and observed for the resulting product.

With `N=C(NCCCCCCNC(=N)NC(=N)Nc1ccc(Cl)cc1)NC(=N)Nc1ccc(Cl)cc1` [CHG, chlorhexidine gluconate], the CFU/glove finger with Staphylococcus aureus stood at 1420 CFU/glove finger. Besides, the “cidal concentration for HIV (1 minute kill)” value in the data set on HIV was “the same as that for Staphylococcus aureus”. Further, the “cidal concentration for HBV (1 minute kill)” value with HBV was “the same as that for Staphylococcus aureus”.

On to zinc gluconate, for which the “gel formation (in words)” value in data set [1] is reported as “forming a gel matrix when mixed with water or alcohol”.
